In ChEMBL document CHEMBL4420076, “Amylin and calcitonin receptor agonist” (2017):
Numbered stars: 1 amine (or outer) side, 2 acyl side, 3 side chain; on linkers, the order of the positions; unused ones are H or OH. Peptide text beside a SMILES is read from it. * marks the point of attachment. C20 diacid = O=C(O)CCCCCCCCCCCCCCCCCCC(=O)*; γGlu = O=C(O)[C@H](CCC(=O)[*:2])N[*:1]; C14 diacid = O=C(O)CCCCCCCCCCCCC(=O)*; AEEA = NCCOCCOCC(=O)O

Tests used:
[1] = Solubility in 100 mM bistrispropane buffer at pH 7.5 incubated for 18 hrs by UPLC analysis; format: physicochemical
[2] = Solubility in 100 mM glycylglycine buffer at pH 3.0 incubated for 18 hrs by UPLC analysis; format: physicochemical
Rattus norvegicus [3] = test: Reduction in food intake in Sprague-Dawley rat at 3 nmol/kg measured 0 to 24 hrs post dose relative to control; format: functional; set-up: scale not given: the % may be the effect or the level left
Rattus norvegicus [4] = test: Reduction in food intake in Sprague-Dawley rat at 3 nmol/kg measured 24 to 48 hrs post dose relative to control; format: functional; set-up: scale not given: the % may be the effect or the level left
[5] = Solubility in 100 mM bistrispropane buffer at pH 8.0 incubated for 18 hrs by UPLC analysis; format: physicochemical
[6] = Solubility in 100 mM bistrispropane buffer at pH 7.0 incubated for 18 hrs by UPLC analysis; format: physicochemical
[7] = Solubility in 100 mM bistrispropane buffer at pH 6.0 incubated for 18 hrs by UPLC analysis; format: physicochemical
[8] = Solubility in 100 mM bistrispropane buffer at pH 6.5 incubated for 18 hrs by UPLC analysis; format: physicochemical
Calcitonin receptor [9] = molecular target: T1, Calcitonin receptor (Homo sapiens, UniProt P30988); test: Agonist activity at human calcitonin receptor expressed in BHK570 cells assessed as increase in intracellular cAMP concentration incubated for 3 hrs in presence of 10% FBS by CRE luciferase reporter gene assay; format: functional, cell-based
T1 sequence (P30988 whole entry): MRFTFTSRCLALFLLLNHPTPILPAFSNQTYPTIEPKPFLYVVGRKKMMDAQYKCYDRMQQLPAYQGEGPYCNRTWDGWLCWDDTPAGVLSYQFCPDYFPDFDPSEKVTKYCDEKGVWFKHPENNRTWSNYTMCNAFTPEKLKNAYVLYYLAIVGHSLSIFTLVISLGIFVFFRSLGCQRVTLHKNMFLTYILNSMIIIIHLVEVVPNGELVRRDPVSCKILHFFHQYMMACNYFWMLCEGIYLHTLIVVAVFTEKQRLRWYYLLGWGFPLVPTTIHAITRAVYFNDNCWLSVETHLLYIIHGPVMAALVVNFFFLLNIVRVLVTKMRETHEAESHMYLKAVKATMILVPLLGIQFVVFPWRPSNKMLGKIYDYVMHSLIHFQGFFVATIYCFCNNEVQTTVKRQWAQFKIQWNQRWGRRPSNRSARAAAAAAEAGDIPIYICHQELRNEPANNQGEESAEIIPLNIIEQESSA

[10] = molecular target: T2, Amylin receptor AMY3; CALCR/RAMP3 (Homo sapiens, UniProt O60896+P30988); test: Agonist activity at human amylin receptor expressed in BHK570 cells co-expressing RAMP3 assessed as increase in intracellular cAMP concentration incubated for 3 hrs in absence of albumin by CRE luciferase reporter gene assay; format: functional, cell-based
T2 sequence (P30988 whole entry): T1 sequence (P30988 whole entry)
T2 sequence (O60896 whole entry): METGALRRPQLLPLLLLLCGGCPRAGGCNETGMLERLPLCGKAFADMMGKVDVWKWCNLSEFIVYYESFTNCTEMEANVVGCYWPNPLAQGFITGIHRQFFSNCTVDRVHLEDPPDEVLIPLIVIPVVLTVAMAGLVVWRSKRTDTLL

Calcitonin receptor [11] = molecular target: T1, Calcitonin receptor; test: Agonist activity at human calcitonin receptor expressed in BHK570 cells assessed as increase in intracellular cAMP concentration incubated for 3 hrs in absence of albumin by CRE luciferase reporter gene assay; format: functional, cell-based
[12] = molecular target: T2, Amylin receptor AMY3; CALCR/RAMP3; test: Agonist activity at human amylin receptor expressed in BHK570 cells co-expressing RAMP3 assessed as increase in intracellular cAMP concentration incubated for 3 hrs in presence of 10% FBS by CRE luciferase reporter gene assay; format: functional, cell-based
[13] = Solubility in 100 mM glycylglycine buffer at pH 5.0 incubated for 18 hrs by UPLC analysis; format: physicochemical
[14] = molecular target: T2, Amylin receptor AMY3; CALCR/RAMP3; test: Displacement of [125I]-labeled rat amylin from human amylin receptor expressed in BHK tkts13 whole cells co-expressing RAMP3 incubated for 60 mins by scintillation proximity assay; format: cell-based
[15] = Solubility in 100 mM glycylglycine buffer at pH 4.0 incubated for 18 hrs by UPLC analysis; format: physicochemical

Work on `CC(C)C[C@H](NC(=O)CNC(=O)[C@H](CO)NC(=O)[C@H](C)NC(=O)CC[C@H](NC(=O)CCCCCCCCCCCCCCCCCCC(=O)O)C(=O)O)C(=O)N[C@@H](CO)C(=O)N[C@H](C(=O)N[C@@H](C)C(=O)N[C@@H](C)C(=O)N[C@@H](CC(C)C)C(=O)NCC(=O)N[C@@H](CCCNC(=N)N)C(=O)N[C@@H](CC(C)C)C(=O)N[C@@H](CO)C(=O)N[C@@H](CCC(=O)O)C(=O)N[C@@H](CCC(=O)O)C(=O)N[C@@H](CC(C)C)C(=O)N[C@@H](Cc1cnc[nH]1)C(=O)N[C@@H](CCC(=O)O)C(=O)N[C@@H](CC(C)C)C(=O)N[C@@H](CCC(N)=O)C(=O)N[C@H](C(=O)N[C@@H](Cc1ccc(O)cc1)C(=O)N1CCC[C@H]1C(=O)N[C@@H](CCCNC(=N)N)C(=O)N[C@H](C(=O)N[C@@H](CCC(=O)O)C(=O)N[C@H](C(=O)NCC(=O)N[C@@H](CO)C(=O)NCC(=O)N[C@H](C(=O)N[C@@H](Cc1ccc(O)cc1)C(N)=O)[C@@H](C)O)[C@@H](C)O)[C@@H](C)O)[C@@H](C)O)[C@@H](C)O` ({C20 diacid-γGlu}-ASGLSTAALGRLSEELHELQTYPRTETGSGTY-NH2) yielded a solubility at 18 h [1] of at least 200 µM, a solubility at 18 h [2] of at least 200 µM and an Activity (Rattus norvegicus [3]) of 21%. It also gave an Activity (Rattus norvegicus [4]) of 6%, a solubility at 18 h [5] of at least 200 µM and a solubility at 18 h [6] of at least 200 µM. For the same compound, the solubility at 18 h [7] was at least 200 µM, the solubility at 18 h [8] was at least 200 µM and the EC50 (Calcitonin receptor [9]) was 0.057 nM. For the same compound, the EC50 [10] was 0.036 nM, the EC50 (Calcitonin receptor [11]) was 0.021 nM and the EC50 [12] was 0.159 nM.
In the case of `CC(C)C[C@H](NC(=O)[C@H](C)NC(=O)[C@H](C)NC(=O)[C@@H](NC(=O)[C@H](CO)NC(=O)[C@H](CC(C)C)NC(=O)[C@H](CCC(=O)O)NC(=O)[C@H](CO)NC(=O)[C@H](C)NC(=O)[C@H](CCC(=O)O)NC(=O)COCCOCCNC(=O)COCCOCCNC(=O)COCCOCCNC(=O)COCCOCCNC(=O)CC[C@H](NC(=O)CC[C@H](NC(=O)CCCCCCCCCCCCC(=O)O)C(=O)O)C(=O)O)[C@@H](C)O)C(=O)NCC(=O)N[C@@H](CCCNC(=N)N)C(=O)N[C@@H](CC(C)C)C(=O)N[C@@H](CO)C(=O)N[C@@H](C)C(=O)N[C@@H](CCC(=O)O)C(=O)N[C@@H](CC(C)C)C(=O)N[C@@H](Cc1cnc[nH]1)C(=O)N[C@@H](CCC(=O)O)C(=O)N[C@@H](CC(C)C)C(=O)N[C@@H](C)C(=O)N[C@H](C(=O)N[C@@H](CC(C)C)C(=O)N1CCC[C@H]1C(=O)N[C@@H](CCCNC(=N)N)C(=O)N[C@H](C(=O)N[C@@H](CCC(=O)O)C(=O)N[C@H](C(=O)NCC(=O)N1CCC[C@H]1C(=O)N[C@@H](CCC(=O)O)C(=O)N[C@@H](CO)C(=O)N1CCC[C@H]1C(N)=O)[C@@H](C)O)[C@@H](C)O)[C@@H](C)O` ({C14 diacid-γGlu-γGlu-AEEA-AEEA-AEEA-AEEA}-EASELSTAALGRLSAELHELATLPRTETGPESP-NH2), the solubility at 18 h [1] is reported as at least 200 µM, the solubility at 18 h [2] is reported as at least 200 µM and the Activity (Rattus norvegicus [3]) is reported as 3%. For the same compound, the solubility at 18 h [13] was at least 200 µM, the Activity (Rattus norvegicus [4]) was -3% and the solubility at 18 h [5] was at least 200 µM. The IC50 [14] was 8.38 nM, the solubility at 18 h [6] was at least 200 µM and the solubility at 18 h [7] was at least 200 µM. The solubility at 18 h [8] was at least 200 µM, the solubility at 18 h [15] was at least 200 µM and the EC50 [10] was 0.027 nM. It also gave an EC50 (Calcitonin receptor [11]) of 0.007 nM.
